4 molecules from patent US20220186286A1, “FLUORESCENT PROBE FOR DETECTING ACTIVATION OF SIALIDASE” (The University of Tokyo, priority 2019, published 2022) can be followed below.

The subject of series [1] is neuraminidase (from Arthrobacter ureafaciens). Put plainly: dynamic (kinetic) parameters of the probes as neuraminidase substrates. Format: biochemical. The note with it: for Km / Vmax / kcat: 50 mM NaOAc, 2 mM CaCl2, 100 μg/mL BSA buffer (pH 6.5), 60 minutes; for kcat/Km relative to that of 4-MUNANA: fold larger than 4-MUNANA. As to the method:
The probe was dissolved in 200 μL (total volume) of 50 mM NaOAc, 2 mM CaCl2, 100 μg/mL BSA buffer (pH 6.5) at various concentrations. A neuraminidase (from Arthrobacter ureafaciens, […]) was added, and the increase in fluorescence for 60 minutes was evaluated. Concerning the dynamic parameter Vmax and Km, the corrected data were calculated using the following formula.
V0 is the steady state speed of the probe substrate rotation by the neuraminidase, Vmax is the maximum speed (mM/min), X is the probe concentration in the reaction mixture (mM), and Km is the Michaelis constant (mM) at which the reaction speed is half of Vmax. Formula 1 was fitted to the data using KaleidaGraph 4.5.2 software (Synergy Software).
The dynamic parameters of HMRef-Neu5Ac and HMRef-S-Neu5Ac were determined in accordance with the method previously described by Govorkova et al., and compared to that of a commercial sialidase substrate, 4-MUNANA.

Series [2] is described as follows: photochemical properties (absorption, emission, quantum yield, pKa, pKcycl). Format: physicochemical. Particulars: for pKcycl: spiro ring formation. As to the method:
UV-vis spectra were obtained with a spectrophotometer, Shimadzu UV-2450.
Fluorescence spectra were obtained with Hitachi F-7000. The absolute fluorescence quantum efficiency was measured using an absolute PL quantum yield measuring apparatus, Quantuarus-QY (Hamamatsu Photonics K. K.). The probe was dissolved in dimethyl sulfoxide (DMSO, grade for fluorometry, DOJINDO LABORATORIES) to obtain a stock solution.
(§1) The optical property of the probe was acquired in a 0.2 M sodium phosphate buffer, a 100 mM NaOAc, 2 mM CaCl2, pH 6.5 buffer, or a 50 mM NaOAc, 2 mM CaCl2, 100 μg/mL BSA, pH 7.4 buffer. For an in vitro enzymatic reaction, the probe DMSO stock solution was diluted with a 100 mM NaOAc, 2 mM CaCl2, pH 7.4 buffer so that the final concentration was 1 μM. First, the fluorescence of the solution before adding a sialidase was measured every second (excitation wavelength: 490 nm, emission wavelength: 520 nm). Then, a neuraminidase from Arthrobacter ureafaciens (0.01 U) was used for this assay.

Series [3] relates to neuraminidase from Arthrobacter ureafaciens. The series can be described thus: in vitro enzymatic reaction with sialidase, change in fluorescence intensity over time. Format: biochemical. The note with it: for increase in the fluorescence in reaction with the sialidase: 1 μM probe, 0.01 U enzyme, 100 mM NaOAc 2 mM CaCl2 buffer pH 7.4, 37° C.; for change in the fluorescence in the absence of enzyme: identical reaction without enzyme, pH 7.4, 37° C. As to the method:
as §1
The fluorescence intensity of HMRef-Neu5Ac obtained in Synthesis Example 1 was changed through an enzymatic reaction with a neuraminidase (Arthrobacter ureafaciens), and the change in the fluorescence intensity of HMRef-Neu5Ac over time was examined. HMRef-Neu5Ac was dissolved in a 100 mM NaOAc 2 mM CaCl2 buffer (pH 7.4) to prepare a 1 μM solution, and 0.01 U of the enzyme was added 60 seconds after the start of measurement. At the time of measurement, the temperature was 37° C., and the concentration of an enzyme inhibitor (DANA) was 100 μM.
In the same manner as in the evaluation of HMRef-Neu5Ac, the reaction with a sialidase and the absorption spectrum at each pH were acquired for HMRef-S-Neu5Ac (FIGS. 3a and 3b).

Series [4] can be described thus: stability of the probe at various pH values (fluorescence intensity and absorption spectra over time). Format: physicochemical. The note with it: for stability: change in fluorescence intensity over time at various pH values: 0.2 M sodium phosphate buffer, 2 hours, ex/em 485 nm/535 nm; for change of absorption spectra 1.5 hours after dissolution: 0.2 M sodium phosphate buffers of various pH, immediately after vs 1.5 hours after dissolution. As to the method: HMRef-Neu5Ac was dissolved in 0.2 M sodium phosphate buffers having various pH values, and the absorption spectra were measured immediately after and 1.5 hours after the dissolution.
The stability of HMRef-Neu5Ac and that of HMRef-S-Neu5Ac were directly compared by recording the changes in fluorescence intensity over time at a pH within a range. The initial fluorescence intensity values of both the probes depend on the pH value according to the pKcycl values of the probes. That is, the lower the pH is, the larger the initial fluorescence intensity value is.
The measurement was performed in 0.2 M sodium phosphate buffer at 37° C. and measurements were taken every 5 minutes. In each measurement, excitation/emission wavelengths of 485 nm/535 nm were used.

Setting [5] is: pH 2, 0.2M sodium phosphate buffer.
Where [6] appears, read: pH 7.4, 0.2M sodium phosphate buffer.

As usually defined, the Km is the substrate concentration at which the rate is half of its maximum. In general, Vmax refers to the top rate of the reaction or transport when substrate is in excess. Usually kcat stands for the maximal rate divided by the concentration of active sites. On to `CC(=O)N[C@@H]1[C@@H](O)C[C@](Oc2ccc3c(C)cc(=O)oc3c2)(C(=O)O)O[C@H]1C(O)[C@H](O)CO` (stereo partly drawn) [4-MUNANA, 2′-(4-methylumbelliferyl)-α-D-N-acetylneuraminic acid, reference compound], for which, in series [1], the Michaelis constant (Km) stood at 37 µM, the Vmax was 1.73 nM/s and the kcat stood at 2.6 s⁻¹.

What is called pKa is the pH at which an ionisable group is half protonated. Molecule `O=c1ccc2c(-c3ccccc3CO)c3ccc(NCC(F)(F)F)cc3oc-2c1` [HMRef, reference compound] had a pKa in series [2] (0.2 M sodium phosphate buffer) of 4.4. In addition, in series [2] (setting [5]), the Absorption max. is 479 nm, the Emission max. was 515 nm and the “fluorescence quantum yield (absolute fluorescence quantum efficiency)” value (“fluorescence quantum yield” below) is 0.716. Also, in series [2] (setting [6]), the Absorption max. is 498 nm, the Emission max. was found to be 518 nm and the “fluorescence quantum yield” value amounted to 0.777. In addition, the pKcycl in series [2] came out at 10.2.

For `CC(=O)N[C@H]1[C@H]([C@H](O)[C@H](O)CO)O[C@@](Oc2ccc3c(c2)Oc2cc(NCC(F)(F)F)ccc2C32OCc3ccccc32)(C(=O)O)C[C@@H]1O` (some centres unmarked) [HMRef-Neu5Ac], in series [3], the “increase in the fluorescence in reaction with the sialidase” value is given as “up to 40 fold” and the “change in the fluorescence in the absence of enzyme” value was 3 fold. Moreover, in series [2] (setting [5]), the Absorption max. came to 484 nm, the Emission max. came out at 522 nm and the “fluorescence quantum yield” value is listed as 0.650. Further, the “fluorescence quantum yield” value in series [2] (setting [6]) is 0.323. The same molecule had a pKcycl in series [2] of 4.8. Besides, the “stability: change in fluorescence intensity over time at various pH values” in series [4] (37° C.) is given as “clear instability at all the pH values”. The “change of absorption spectra 1.5 hours after dissolution” value in series [4] is recorded as “greatly changed in shape”. Moreover, the “time to complete hydrolysis” value in series [4] (pH 2 and pH 4, 0.2 M sodium phosphate buffer, 37° C.) is “about 40 minutes”. For the same molecule, in series [1], the Km is 19 µM, the Vmax is 13.5 nM/s, the kcat worked out at 20.6 s⁻¹ and the “kcat/Km relative to that of 4-MUNANA” value is on record as approximately 16 fold.

For the molecule `CC(=O)N[C@H]1[C@H]([C@H](O)[C@H](O)CO)O[C@@](Oc2ccc(COc3ccc4c(c3)Oc3cc(NCC(F)(F)F)ccc3C43OCc4ccccc43)cc2)(C(=O)O)C[C@@H]1O` (some centres unmarked) [HMRef-S-Neu5Ac], in series [3], the “increase in the fluorescence in reaction with the sialidase” value stood at 130 fold and the “change in the fluorescence in the absence of enzyme” value is “remained at a constant low level”. In series [2] (setting [5]), the Absorption max. amounted to 484 nm, the Emission max. turned out to be 522 nm and the “fluorescence quantum yield” value was determined as 0.537. The “fluorescence quantum yield” value in series [2] (setting [6]) is given as 0.271. The pKcycl in series [2] is given as 5.3. Moreover, the “stability: change in fluorescence intensity over time at various pH values” in series [4] (37° C.) is “changed little over the time”. Moreover, in series [4], the “change of absorption spectra 1.5 hours after dissolution” value is “changed little”. In series [1], the Km turned out to be 11 µM, the Vmax came out at 7.03 nM/s, the kcat came to 10.7 s⁻¹ and the “kcat/Km relative to that of 4-MUNANA” value is given as approximately 13 fold.
